Tests used:
AR-LBD and TIF2 = target: T1, AR-LBD and TIF2 (Homo sapiens, UniProt P10275); assay: TIF2 mammalian 2-hybrid (M2H) assay; format: cell-based; details: for IC50: HEK 293 cells, 25 nM DHT, 27 h compound exposure, read-out: M2H AR-TIF2 CoA Recruitment IC50
T1 construct: AR-LBD amino acids 658–919 expressed as a fusion protein with Gal4-DBD; expressed in transfected cells; host or cells: HEK 293
T1 sequence (P10275 658-919): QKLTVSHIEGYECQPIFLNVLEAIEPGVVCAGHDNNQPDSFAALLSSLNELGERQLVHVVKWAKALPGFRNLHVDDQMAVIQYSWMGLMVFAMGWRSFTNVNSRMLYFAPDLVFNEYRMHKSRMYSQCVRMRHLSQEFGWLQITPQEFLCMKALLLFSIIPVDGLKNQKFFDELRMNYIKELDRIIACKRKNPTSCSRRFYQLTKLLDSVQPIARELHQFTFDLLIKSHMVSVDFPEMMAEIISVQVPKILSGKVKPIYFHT
Excerpt: The 5xGAL4-TATA-luciferase reporter plasmid was a gift from Dr. Richard Maurer from the Oregon Health and Science University, and constructs pGAL4-hAR-658–919 (AR-LBD amino acids 658–919 expressed as a fusion protein with Gal4-DBD), pVP16-SRC1 (full--length SRC1 expressed as a fusion with VP16 activation domain) and pVP16-Empty vector were kindly provided to us by Dr. Elizabeth Wilson, from UNC Chapel Hill. pVP16-TIF2 was generated as described previously. HEK 293 cells were transiently co-transfected with 5 ng of pGal4-AR-LBD, 10 ng of either pVP16-TIF2 or pVP16-SRC1, and 20 ng of the 5xGal4-TATA-Luc reporter as described previously. HEK 293 cells were bulk co-transfected with the three plasmids that had been individually incubated with Fugene 6 at a 3:1 ratio for 25 min at room temperature (RT) in serum free media (SFM) and then combined with HEK 293 cells that were suspended in DMEM (Cellgro10013CV) with 2 mM L-glutamine (Invitrogen) that was supplemented with 10% fetal bovine serum, and 5000 cells in a volume of 40 μL were seeded into the wells of white opaque 384-well assay plates (Greiner Bio-one, #781080) and cultured overnight at 37 °C, 5% CO2, and 95% humidity. […] 25 μL of BrightGlo® reagent was added to the plate and the relative luminescence units (RLUs) were captured on a SpectraMax M5e microtiter plate reader (Molecular Devices, LLC, San Jose, CA).

PSA = assay: Western blot of PSA expression in C4–2 cells; format: cell-based, human; details: for C4-2 cell lysates PSA Western Blot, relative to DMSO (100%): 10 nM DHT 24 h, 20 μM compound 3 h pre-exposure; for Effect on endogenous and DHT-enhanced PSA expression and secretion: C4–2 cells, 20 μM for 3 h prior to DMSO or 10 nM DHT, 24 h
Experimental: Cell lysate protein concentrations were determined in a bicinchoninic acid (BCA) assay. Equal amounts of cell protein were mixed with SDS-PAGE sample buffer and placed in a heat block at 100 °C for 5 min. The protein constituents of C4–2 cells were separated by SDS-PAGE on 10% separating gels, transferred to nitrocellulose membranes and western blots were probed overnight at 4 °C with a 1:1000 dilution of a rabbit anti-hPSA (Cell Signaling, Danvers, MA) primary antibody in Tris-buffered saline (TBS) Tween 20 (TBST) containing 5% non-fat milk. Membranes were washed 3x in TBST for 10 min, then incubated for 1 h at room temperature with a 1:10,000 dilution of the goat anti-rabbit IgG horse radish peroxidase (HRP) conjugated secondary antibody (Invitrogen, Carlsbad, CA) in TBST containing 5% non-fat milk. Western blots were then washed 3x in TBST and developed with Pierce enhanced chemiluminescence (ECL) western blotting substrate (Thermo Fisher Scientific, Waltham, MA). Images of western blot ECL bands were acquired on an iBright 1500 imaging system (Thermo Fisher Scientific, Waltham, MA) and quantified by iBright image analysis software.

TIF2 = target: T2, TIF2 (Homo sapiens, UniProt Q15596); assay: Western blotting cellular thermal shift assay for TIF2 in C4–2 cells; format: cell-based; details: 20 μM 1 h at 37 °C prior to heat shock at 46 °C
T2 construct: endogenous in cells; host or cells: C4–2 cells
Experimental: C4–2 cells were harvested by trypsinization, washed 1x by centrifugation at 270 × g for 5 min and resuspension in PBS, counted, centrifugated at 270 × g for 5 min and resuspended at 7 × 10 [6] cells per mL in Opti-MEM medium (Gibco, Gaithersburg, MD). 50 μL of C4–2 cell suspension (3.5 × 10 [5] cells) were then transferred to PCR tubes that were placed in a T-100 thermocycler (BioRad, Hercules, CA) and a 2 °C interval temperature step gradient from 37 °C to 53 °C was applied. Cells were maintained at each step of the temperature gradient for 5 min and then tubes were withdrawn and placed on ice. 50 μL of cell lysis buffer, 500 mM NaCl, 1% NP-40, 1x protease inhibitor cocktail in PBS were added to the heat shocked cell suspensions in PCR tubes and placed on ice for an additional 30 min. Cell lysates were then centrifuged at 14,000 RPM (18,800 × g) at 4 °C for 15 min and supernatants were transferred to new tubes and protein concentrations were determined in a bicinchoninic acid (BCA) assay. 45 μL of cell lysis supernatants were mixed with 15 μL of 5x SDS-PAGE sample buffer and placed in a heat block at 100 °C for 5 min. The protein constituents of heat shocked C4–2 cell lysis supernatants were separated by SDS-PAGE on 8% separating gels, transferred to nitrocellulose membranes that were blocked for 1 h at room temperature in 5% non-fat milk in TBST, and then probed overnight at 4 °C with a 1:1000 dilution of either rabbit anti-AR (Cell Signaling, Danvers, MA) or rabbit anti-TIF2 (Bethyl Laboratories, Waltham, MA) primary antibodies in TBST containing 5% non-fat milk. Membranes were then washed 3x in TBST buffer for 10 min, then incubated with a 1:10,000 dilution of the goat anti-rabbit IgG HRP conjugated secondary antibody (Invitrogen, Carlsbad,CA) in TBST containing 5% non-fat milk for 1 h at room temperature. Western blots were then washed 3x in TBST buffer and developed with Pierce ECL western blotting substrate. Images of ECL western blots were acquired on an iBright 1500 imaging system and quantified using the iBright image analysis software.

T2 sequence (Q15596 whole entry): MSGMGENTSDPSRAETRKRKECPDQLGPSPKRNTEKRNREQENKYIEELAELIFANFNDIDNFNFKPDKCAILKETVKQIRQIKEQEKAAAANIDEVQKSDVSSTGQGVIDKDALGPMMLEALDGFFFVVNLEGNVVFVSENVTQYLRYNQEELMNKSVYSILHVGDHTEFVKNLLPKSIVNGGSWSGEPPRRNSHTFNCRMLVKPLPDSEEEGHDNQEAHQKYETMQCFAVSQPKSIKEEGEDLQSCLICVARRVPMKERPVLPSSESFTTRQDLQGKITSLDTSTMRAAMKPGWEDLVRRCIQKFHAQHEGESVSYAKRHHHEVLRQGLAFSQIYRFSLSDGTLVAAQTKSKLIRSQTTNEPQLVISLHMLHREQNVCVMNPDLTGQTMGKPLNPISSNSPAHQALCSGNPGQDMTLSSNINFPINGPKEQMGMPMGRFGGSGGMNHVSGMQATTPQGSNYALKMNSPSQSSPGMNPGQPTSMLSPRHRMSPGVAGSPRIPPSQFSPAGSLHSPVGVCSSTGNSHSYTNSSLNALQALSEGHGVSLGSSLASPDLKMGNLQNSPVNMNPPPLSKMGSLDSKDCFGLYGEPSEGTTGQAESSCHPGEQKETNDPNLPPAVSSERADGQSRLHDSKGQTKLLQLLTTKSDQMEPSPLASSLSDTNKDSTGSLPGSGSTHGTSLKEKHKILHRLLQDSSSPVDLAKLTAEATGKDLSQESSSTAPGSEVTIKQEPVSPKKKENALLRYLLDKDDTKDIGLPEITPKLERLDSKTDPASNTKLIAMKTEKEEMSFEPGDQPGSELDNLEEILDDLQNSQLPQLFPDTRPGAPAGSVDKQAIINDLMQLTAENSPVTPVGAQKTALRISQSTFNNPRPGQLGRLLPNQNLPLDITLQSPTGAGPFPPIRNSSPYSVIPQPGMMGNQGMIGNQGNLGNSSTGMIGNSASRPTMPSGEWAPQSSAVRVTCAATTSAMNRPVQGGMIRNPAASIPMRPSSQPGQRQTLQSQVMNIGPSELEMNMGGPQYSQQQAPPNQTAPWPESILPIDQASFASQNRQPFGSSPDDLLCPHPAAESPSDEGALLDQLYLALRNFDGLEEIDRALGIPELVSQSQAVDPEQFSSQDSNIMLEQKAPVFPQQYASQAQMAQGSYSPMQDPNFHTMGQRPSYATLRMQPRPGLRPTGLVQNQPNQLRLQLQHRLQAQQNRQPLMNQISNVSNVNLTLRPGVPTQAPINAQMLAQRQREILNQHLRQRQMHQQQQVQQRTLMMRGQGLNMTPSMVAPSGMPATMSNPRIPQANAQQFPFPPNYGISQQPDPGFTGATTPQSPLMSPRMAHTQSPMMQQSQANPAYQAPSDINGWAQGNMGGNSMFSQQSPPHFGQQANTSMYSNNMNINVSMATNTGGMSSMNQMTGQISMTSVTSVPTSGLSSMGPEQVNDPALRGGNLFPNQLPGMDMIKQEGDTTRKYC

Row | Structure (SMILES) | IC50 (AR-LBD and TIF2) | C4-2 cell lysates PSA Western Blot, relative to DMSO (100%) (PSA) | Effect on endogenous and DHT-enhanced PSA expression and secretion (PSA) | Effect on TIF2 thermal stability (TIF2) | CoA selectivity, lower IC50 for TIF2 than SRC1 (AR-LBD and TIF2; M2H assays)
1 | Cc1ccccc1-c1cc(O)c2c(c1)CN(c1nc(C(N)=O)cs1)CCO2 [S1–1] | 5.77 µM | 22.1% | substantially reduced both endogenous and DHT-enhanced PSA expression and secretion | did not enhance TIF2 thermal stability over DMSO | 
2 | Cc1ccccc1-c1cc(O)c2c(c1)CN(c1nccs1)CCO2 [S1–3] | 7.46 µM |  |  |  | 
3 | Cc1nsc(NC(=O)N2CCC(Sc3ccccc3C)CC2)n1 [S2–6] | 0.08 µM | 0.9% | substantially reduced both endogenous and DHT-enhanced PSA expression and secretion | did not enhance TIF2 thermal stability over DMSO | ~ 5 fold
4 | Cc1c(-c2ccccc2F)[nH]c2ccc(CNC(=O)CCc3cn[nH]c3)cc12 [S3–11] | 6.38 µM | 22.8% | substantially reduced both endogenous and DHT-enhanced PSA expression and secretion | did not enhance TIF2 thermal stability over DMSO | 
5 | Cc1c(-c2ccccc2F)[nH]c2ccc(CNC(=O)CCc3cnccn3)cc12 [S3–12] | 5.44 µM |  |  |  | 
6 | CC(=O)NCCC(=O)NCc1ccc2[nH]c(-c3ccccc3F)c(C)c2c1 [S3–13] | 18 µM |  |  |  | 
7 | Cc1c(-c2ccccc2F)[nH]c2ccc(CNC(=O)c3ccc(CO)o3)cc12 [S3–14] | 2.43 µM |  |  |  | 
8 | Cc1c(-c2ccc(F)cc2)[nH]c2ccc(CNC(=O)c3ccc(CO)o3)cc12 [S3–15] | 3.32 µM |  |  |  | 

Source: publication PMC12366525, “Characterization of allosteric modulators that disrupt androgen receptor co-activator protein-protein interactions to alter transactivation–Drug leads for metastatic castration resistant prostate cancer” (SLAS discovery : advancing life sciences R & D, 2023)
